# Experimental data as given in patent publication US9334285B2, “Aldosterone synthase inhibitors” (Boehringer Ingelheim International GmbH, priority 2014, dated 2016).
# pIC50: −log10 of the molar value. Where two headings read alike, the source gives them in different places.
# Tests used:
# [1] = target: T1, aldosterone synthase (CYP11B2) (Macaca fascicularis, UniProt A0A2K5UPL9); test: Inhibition of aldosterone synthase, cynomolgus adrenal mitochondria, aldosterone quantified by mass spectrometry; assay type: biochemical, cynomolgus monkey; conditions: 2 μM corticosterone, 90 minutes at 37° C.
# T1 construct: employ cynomolgus adrenal gland mitochondria as the source of aldosterone synthase (CYP11B2); from tissue; host or cells: cynomolgus monkey adrenal gland mitochondria
# T1 sequence (A0A2K5UPL9 1-503): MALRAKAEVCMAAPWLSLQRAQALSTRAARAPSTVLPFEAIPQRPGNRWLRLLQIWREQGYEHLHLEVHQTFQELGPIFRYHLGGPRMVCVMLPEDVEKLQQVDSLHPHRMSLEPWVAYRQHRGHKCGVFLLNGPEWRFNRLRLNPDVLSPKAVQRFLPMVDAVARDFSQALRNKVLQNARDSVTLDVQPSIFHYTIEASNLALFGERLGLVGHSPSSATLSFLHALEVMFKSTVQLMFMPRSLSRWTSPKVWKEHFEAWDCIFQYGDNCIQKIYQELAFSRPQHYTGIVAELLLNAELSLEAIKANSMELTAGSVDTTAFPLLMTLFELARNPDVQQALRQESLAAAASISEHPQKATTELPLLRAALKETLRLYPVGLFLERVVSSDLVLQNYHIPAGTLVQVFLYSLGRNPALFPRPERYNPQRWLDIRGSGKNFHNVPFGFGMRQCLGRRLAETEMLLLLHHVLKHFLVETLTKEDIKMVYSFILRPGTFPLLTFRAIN
# Procedure: The aldosterone synthase and cortisol synthase inhibition assays employ cynomolgus adrenal gland mitochondria as the source of aldosterone synthase (CYP11B2) and cortisol synthase (CYP11B1). […] One unit of CYP11B2 and CYP11B1 activity in these preparations is defined as the amount of enzyme that generates 1 pmol of product in one hour under the conditions described.
# The compounds of the invention may be evaluated for aldosterone synthase inhibition by the following assay:
# Assays are performed in 96-well format in a final volume of 60 microL/well, containing 100 mM potassium phosphate, pH 7.4, 1% (v/v) DMSO, and additionally, 2 μM of corticosterone and 50 units of CYP11B2 activity. Reactions are started by the addition of NADPH to 1 mM and allowed to proceed for 90 minutes at 37° C. Reactions are terminated by the addition of 60 μL of MeCN containing an internal standard for mass spectrometry. One hundred microliters are then transferred to a glass filter plate and centrifuged at 570×g for 5 minutes and the filtrate is collected. Reaction product aldosterone is quantified by mass spectrometry. To determine the assay blank value (0% activity), NADPH is omitted from some reactions.
# Dose dependent inhibition is quantified by the inclusion of compound at various concentrations. Maximum activity (100%) is defined by reactions containing NADPH, but without compound.
# [2] = target: cortisol synthase (CYP11B1) (Macaca fascicularis, UniProt A0A2K5ULY1); test: Inhibition of cortisol synthesis, cynomolgus adrenal mitochondria, 11-deoxycortisol as substrate; assay type: biochemical, cynomolgus monkey; conditions: 150 units of CYP11B1, 11-deoxycortisol as substrate
# Procedure: The aldosterone synthase and cortisol synthase inhibition assays employ cynomolgus adrenal gland mitochondria as the source of aldosterone synthase (CYP11B2) and cortisol synthase (CYP11B1). Mitochondria are prepared from frozen cynomolgus monkey adrenal glands according to Method A described in by J. D. McGarry et al. (Biochem. J., 1983, 214, 21-28), with a final resuspension in the AT buffer described in R. Yamaguchi et al. (Cell Death and Differentiation, 2007, 14, 616-624), frozen as aliquots in liquid nitrogen and stored at −80° C. until use. One unit of CYP11B2 and CYP11B1 activity in these preparations is defined as the amount of enzyme that generates 1 pmol of product in one hour under the conditions described.
# Assays are performed as for aldosterone synthase except for the use of 150 units of CYP11B1, 11-deoxycortisol as substrate and cortisol measured as product.
# [3] = Cortisol Inhibition IC50, cynomolgus adrenal mitochondria
# [4] = cynomolgus adrenal mitochondria, read-out: Cortisol Inhibition IC50
SMILES,pIC50 [1],"pIC50 [2, 3]","pIC50 [2, 4]"
"CC1Cc2ncn(-c3ccc(C#N)c(Cl)c3)c2C(=O)O1 (single isomer, unassigned) [Compound 15A, 2-chloro-4-[6-methyl-4-oxo-3H,4H,6H,7H-pyrano[3,4-d]imidazol-3-yl]benzonitrile]",8.12,5.47,
"CC1Cc2ncn(-c3ccc(C#N)c(Cl)c3)c2C(=O)O1 (single isomer, unassigned) [Compound 15B, 2-chloro-4-[6-methyl-4-oxo-3H,4H,6H,7H-pyrano[3,4-d]imidazol-3-yl]benzonitrile]",7.92,5.19,
"CC1(CO)Cc2ncn(-c3cccc(F)c3Cl)c2C(=O)O1 (single isomer, unassigned) [Compound 34A, 3-(2-chloro-3-fluorophenyl)-6-(hydroxymethyl)-6-methyl-3H,4H,6H,7H-pyrano[3,4-d]imidazol-4-one]",6.06,,< 4.52
"CC1(CO)Cc2ncn(-c3cccc(Cl)c3F)c2C(=O)O1 (single isomer, unassigned) [Compound 35B, 3-(3-chloro-2-fluorophenyl)-6-(hydroxymethyl)-6-methyl-3H,4H,6H,7H-pyrano[3,4-d]imidazol-4-one]",6.21,,< 4.52
"CC1(CO)Cc2ncn(-c3ccc(Cl)cc3)c2C(=O)O1 (single isomer, unassigned) [Compound 38A, 3-(4-chlorophenyl)-6-(hydroxymethyl)-6-methyl-3H,4H,6H,7H-pyrano[3,4-d]imidazol-4-one]",6.92,,4.72
"CC1(CO)Cc2ncn(-c3ccc(Cl)cc3)c2C(=O)O1 (single isomer, unassigned) [Compound 38B, 3-(4-chlorophenyl)-6-(hydroxymethyl)-6-methyl-3H,4H,6H,7H-pyrano[3,4-d]imidazol-4-one]",6.41,,4.44
"CN1C(=O)CCc2cc(-n3cnc4c3C(=O)OC(C)(CO)C4)ccc21 (single isomer, unassigned) [Compound 40A, 6-[6-(hydroxymethyl)-6-methyl-4-oxo-3H,4H,6H,7H-pyrano[3,4-d]imidazol-3-yl]-1-methyl-1,2,3,4-tetrahydroquinolin-2-one]",6.80,,< 4.52
"CN1C(=O)CCc2cc(-n3cnc4c3C(=O)OC(C)(CO)C4)ccc21 (single isomer, unassigned) [Compound 40B, 6-[6-(hydroxymethyl)-6-methyl-4-oxo-3H,4H,6H,7H-pyrano[3,4-d]imidazol-3-yl]-1-methyl-1,2,3,4-tetrahydroquinolin-2-one]",6.34,,< 4.52
"CC1(CO)Cc2ncn(-c3ccc4c(c3)CCO4)c2C(=O)O1 (single isomer, unassigned) [Compound 42A, 3-(2,3-Dihydro-benzofuran-5-yl)-6-hydroxymethyl-6-methyl-6,7-dihydro-3H-pyrano[3,4-d]imidazol-4-one]",6.68,,< 4.52
"CC(C)(C)OC(=O)NCC1(C)Cc2ncn(-c3ccc(F)c(F)c3)c2C(=O)O1 (centres unmarked) [Compound 1, tert-butyl N{[3-(3,4-difluorophenyl)-6-methyl-4-oxo-3H,4H,6H,7H-pyrano[3,4-d]imidazol-6-yl]methyl}carbamate]",7.26,,5.64
"CC1(C)Cc2ncn(-c3ccc(Cl)c(Cl)c3)c2C(=O)O1 [Compound 4, 3-(3,4-dichlorophenyl)-6,6-dimethyl-3H,4H,6H,7H-pyrano[3,4-d]imidazol-4-one]",8.08,,5.92
"CC1(C)Cc2ncn(-c3cccc(F)c3Cl)c2C(=O)O1 [Compound 7, 3-(2-chloro-3-fluorophenyl)-6,6-dimethyl-3H,4H,6H,7H-pyrano[3,4-d]imidazol-4-one]",7.30,,5.17
"CC1(C)Cc2ncn(-c3ccc(Cl)c(C#N)c3)c2C(=O)O1 [Compound 12, 2-chloro-5-{6,6-dimethyl-4-oxo-3H,4H,6H,7H-pyrano[3,4-d]imidazol-3-yl}benzonitrile]",6.54,,4.62
"CC1(C)Cc2ncn(-c3ccc(F)cc3)c2C(=O)O1 [Compound 14, 3-(4-fluorophenyl)-6,6-dimethyl-3H,4H,6H,7H-pyrano[3,4-d]imidazol-4-one]",6.89,,4.89
"CC1(C)Cc2ncn(-c3ccccc3)c2C(=O)O1 [Compound 17, 6,6-dimethyl-3-phenyl-3H,4H,6H,7H-pyrano[3,4-d]imidazol-4-one]",6.41,,4.21
"O=C1OCCc2ncn(-c3ccc(Cl)cc3)c21 [Compound 20, 3-(4-chlorophenyl)-3H,4H,6H,7H-pyrano[3,4-d]imidazol-4-one]",6.33,,4.19
"N#Cc1ccc(-n2cnc3c2C(=O)OCC3)cc1 [Compound 21, 4-{4-oxo-3H,4H,6H,7H-pyrano[3,4-d]imidazol-3-yl}benzonitrile]",6.38,,4.09
"N#Cc1ccc(-n2cnc3c2C(=O)OCC3)cc1Cl [Compound 22, 2-chloro-4-{4-oxo-3H,4H,6H,7H-pyrano[3,4-d]imidazol-3-yl}benzonitrile]",7.60,4.74,
"O=C1OCCc2ncn(-c3ccc(Cl)c(Cl)c3)c21 [Compound 23, 3-(3,4-dichlorophenyl)-3H,4H,6H,7H-pyrano[3,4-d]imidazol-4-one]",7.85,,5.00
"O=C1OCCc2ncn(-c3ccc(F)c(F)c3)c21 [Compound 24, 3-(3,4-difluorophenyl)-3H,4H,6H,7H-pyrano[3,4-d]imidazol-4-one]",6.36,,4.70
"O=C1OCCc2ncn(C3Cc4ccccc4C3)c21 [Compound 25, 3-(2,3-dihydro-1H-inden-2-yl)-3H,4H,6H,7H-pyrano[3,4-d]imidazol-4-one]",6.30,< 4.52,
CC1(C)Cc2ncn(C3Cc4ccccc4C3)c2C(=O)O1 [Compound 26],7.19,,4.60
"CC1(CO)Cc2ncn(C3Cc4ccccc4C3)c2C(=O)O1 (centres unmarked) [Compound 27, 3-(2,3-dihydro-1H-inden-2-yl)-6-(hydroxymethyl)-6-methyl-3H,4H,6H,7H-pyrano[3,4-d]imidazol-4-one]",6.66,,< 4.52
"CC(=O)OCC1(C)Cc2ncn(-c3ccc(C#N)c(Cl)c3)c2C(=O)O1 (centres unmarked) [Compound 32, [3-(3-chloro-4-cyanophenyl)-6-methyl-4-oxo-3H,4H,6H,7H-pyrano[3,4-d]imidazol-6-yl]methyl acetate]",7.44,5.19,
"O=C1OC(CO)Cc2ncn(-c3ccc(Cl)cc3)c21 (centres unmarked) [Compound 36, 3-(4-chlorophenyl)-6-(hydroxymethyl)-3H,4H,6H,7H-pyrano[3,4-d]imidazol-4-one]",6.27,,< 4.00
"CC1(CO)Cc2ncn(-c3ccc(C#N)cc3)c2C(=O)O1 (centres unmarked) [Compound 37, 4-[6-(hydroxymethyl)-6-methyl-4-oxo-3H,4H,6H,7H-pyrano[3,4-d]imidazol-3-yl]benzonitrile]",6.68,,4.47
"CC1Cc2ncn(-c3ccc(Cl)c(Cl)c3)c2C(=O)O1 (centres unmarked) [Compound 41, 3-(3,4-dichlorophenyl)-6-methyl-3H,4H,6H,7H-pyrano[3,4-d]imidazol-4-one]",8.07,,5.22
"COC(=O)C1(C)Cc2ncn(-c3ccc(C#N)c(Cl)c3)c2C(=O)O1 (centres unmarked) [Compound 45, 3-(3-Chloro-4-cyano-phenyl)-6-methyl-4-oxo-3,4,6,7-tetrahydro-pyrano[3,4-d]imidazole-6-carboxylic acid methyl ester]",7.55,5.96,
